Data on one sequence can be found in patent US20110263822A1, “COMPOSITION FOR THE PROPHYLAXIS AND TREATMENT OF HBV INFECTIONS AND HBV-MEDIATED DISEASES” (Rhein Biotech Gesellschaft Fur Neue Biotechnologische …, priority 2003, published 2011).

pIC50: −log10 of the molar value. Ends that are not written are not given here.

For this experiment, the target named is MHC class I molecules K^b (Mus musculus, UniProt P01901). The experiment in a line: biochemical. As to conditions: 48 hours at 18° C.; read-out: K^b-binding.
Sequence of MHC class I molecules K^b (P01901 whole entry, looked up): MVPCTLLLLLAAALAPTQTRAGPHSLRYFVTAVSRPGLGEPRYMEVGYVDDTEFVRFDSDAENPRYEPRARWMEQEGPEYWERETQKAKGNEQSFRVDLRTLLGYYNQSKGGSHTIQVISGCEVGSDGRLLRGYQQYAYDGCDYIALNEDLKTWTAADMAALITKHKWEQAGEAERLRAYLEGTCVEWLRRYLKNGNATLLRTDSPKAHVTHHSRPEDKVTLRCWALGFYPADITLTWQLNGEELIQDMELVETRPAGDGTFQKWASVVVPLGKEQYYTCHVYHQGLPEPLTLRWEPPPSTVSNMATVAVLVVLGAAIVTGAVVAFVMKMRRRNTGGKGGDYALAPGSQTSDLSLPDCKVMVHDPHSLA

Take IVSPFIPL [IVSPFIPL]: the pIC50 is 6.11.
